Measurements as given in patent publication US20120156311A1, “COMBINATION THERAPY FOR CANCER COMPRISING A PLATINUM-BASED ANTINEOPLASTIC AGENT AND A BIOCOMPATIBLE ELECTRON DONOR” (priority 2009, published 2012).
“Also recorded” adds a separate entry of the source.

Experiments:
[1] = system: HeLa (cervical cancer) cells; assay: MTT cell survival assay in HeLa cells; type: cell-based, human
Experimental: Thus, appropriate doses of the molecular promoters were selected by initially screening for toxicity. […] The viability of cells was measured by MTT assay, one of the most commonly used cell viability assays. This method involves the conversion of MTT (3-(4,5-dimethylthiazol-2-yl)-2,5-diphenyltetrazolium bromide) to an insoluble formazan by metabolically-active cells (live cells). Using a solubilizing agent, the formazan is dissolved and its absorbance measured, giving indication to the number of cells that survive.
Cells were cultured in 96-well plates (5×10^3 cells/well) for 24 h. The culture medium was replaced by new culture medium and incubated for 24 h with varying drug concentrations. After the drug treatment, cells were replaced with new medium containing 1.2 mM MTT (Sigma) and incubated for 4 h. The medium was then removed and the formazan crystals solubilized by 100 μL DMSO. The surviving fraction was determined by measuring the absorbance at 540 nm using a Multiskan Spectrum UV/Vis microplate reader (Thermo Scientific), which is directly proportional to the number of viable cells.

[2] = system: NIH-OVCAR-3 (HTB-161) cisplatin-resistant human ovarian cancer cells; assay: MTT cell viability assay in cisplatin-resistant HTB-161 cells; type: cell-based; conditions: for effect of combination with cisplatin on viability and drug resistance: cisplatin combined with electron donor (100 μM TMPD)
Experimental: Briefly, HTB-161 cells were plated at a density of 7×10^3 cells/well in 96-well plates. […] After incubation for specified times at 37° C. in a humidified incubator, 20 μL of MTT (5 mg/mL in PBS) were added to each well, and cells were incubated for a further 4 h. After removal of the medium, 100 μL DMSO was added to each well. The absorbance was recorded on a microplate reader at the wavelength of 540 nm.

[3] = system: HeLa (cervical cancer) cells; assay: APO-BrdU TUNEL DNA fragmentation assay (flow cytometry) in HeLa cells; type: cell-based, human; conditions: for cells with DNA fragmentation (BrdU-positive): 48 h
Experimental: DNA fragmentation was detected using a standard apoptosis assay, APO-BrdU TUNEL, which utilizes the fact that DNA strand breaks expose a large number of 3′-OH ends, which act as a starting point for terminal deoxynucleotidyl transferase (TdT) to add deoxyribonucleotides. The break sites are labeled by the addition of BrdUTP in the presence of the TdT enzyme. An anti-BrdU antibody conjugated with a fluorescent molecule is added to detect the strand breaks by measuring their fluorescence intensities using flow cytometry. The cell cycle distribution can also be detected simultaneously from the ordinate axis of the generated dot plot (with the BrdU-content on the y-axis), where the events with fluorescence intensity above the background indicate the cells with fragmented DNA (within upper box).
Cells were cultured in 25 cm^2 flasks (˜8×10^7 cells/flask) for 24 h. The culture medium was replaced by new medium and incubated for 48 h with varying drug concentrations. Both floating and adherent cells were harvested by trypsinization and fixed using 1% paraformaldehyde for 30 minutes. Cells were then permeabilized using 70% ice-cold ethanol for at least 24 h at −20° C. Samples were prepared for DNA fragmentation measurements using the APO-BrdU DNA Fragmentation Assay (Invitrogen). To label the DNA, ethanol was removed and cells were resuspended in 50 μL of TUNEL reaction buffer containing terminal deoxynucleotidyl transferase and BrdUTP for 1 h at 37° C., shaking every 15 min. After overnight room temperature incubation, the cells were then incubated with Alexa Fluor 488-conjugated BrdUTP-antibody for 30 min at room temperature. Cells were also stained with propidium iodide (5 μg/mL) and incubated with RNase A for 30 min at room temperature to determine the total cellular DNA content. Samples were then analyzed by a Becton-Dickinson FACSVantage SE flow cytometer in pulse processing mode (10 000 cells per sample). Computational analyses were performed using FCS Express software (De Novo Software, Los Angeles, Calif.) to obtain FL1-H versus FL2-A dot plots (log versus linear, respectively), gating on front scatter (FSC) versus side scatter (SSC) to eliminate debris, as well as FL2-A versus FL2-W to eliminate doublets. Experiments were performed independently at least 3 times
DNA fragmentation was measured by using the APO-BrdU TUNEL assay.

[4] = system: NIH-OVCAR-3 (HTB-161) cisplatin-resistant human ovarian cancer cells; assay: APO-BrdU TUNEL DNA fragmentation assay (flow cytometry) in HTB-161 cells; type: cell-based
Experimental: The method based on terminal deoxyribonucleotidyl transferase (TdT)-mediated dUTP nick-end labelling was used to determine the cell apoptosis. […] DNA fragmentation was measured by using the APO-BrdU TUNEL assay. […] After trypsinized, the cells were washed with PBS, were processed for labeling with the deoxythymidine analog 5-bromo-2′-deoxyuridine 5′-triphosphate (BrdUTP), and were incubated with an Alexa Fluor 488 dye-labeled anti-BrdU antibody and propidium iodide by the use of an APO-BrdU™ TUNEL Assay Kit (Invitrogen) as per manufacturer's protocol. The labeled cells were analyzed by flow cytometry.

[5] = system: Plasmid DNA [pGEM 3Zf(−), 3197 kp]; assay: Agarose gel electrophoresis of plasmid DNA damage; type: biochemical, Escherichia Coli; conditions: cisplatin alone, up to 3.0 mM
Description: The gel electrophoresis was used for quantitative measurements of plasmid DNA damage, characterizing single-strand breaks (SSBs), double-strand breaks (DBSs) and crosslinks (CLs). We also used the γH2AX DNA damage assay (Invitrogen) to detect DSBs of genomic DNA in cancer cells. Briefly, DNA damaging radicals induce phosphorylation of histone variant H2AX (Ser139) forming DNA foci at the site of DNA DSBs. Phosphorylated H2AX aids in the recruitment of proteins responsible for DSB repair.
Aliquots equivalent to 96 ng DNA were removed from the solutions for gel electrophoresis. All aliquots were analyzed with a standard agarose gel electrophoresis method, namely, on 1% neutral TAE agarose gel in TAE running buffer. The gel was prestained with 1 μg/ml ethidium bromide.

[6] = system: NIH-OVCAR-3 (HTB-161) cisplatin-resistant human ovarian cancer cells; assay: Cell cycle analysis by flow cytometry in HTB-161 cells; type: cell-based; conditions: cisplatin alone or with 100 μM TMPD, 24 h
Experimental: HTB-161 cells were plated at a density of 2×10^5 per well on six-well plates. […] The cells were trypsinized, washed twice with chilled PBS, and centrifuged. The cell pellet was resuspended in 70% ethanol at −20° C. overnight. The cells were centrifuged at 1,000 rpm for 5 min; the pellet was washed twice with chilled PBS, suspended in 500 μL PBS, and incubated with RNase (20 μg/mL final concentration) at 25° C. for 30 min and with propidium iodide (50 μg/mL final concentration) for an additional 30 minutes. The cells were analyzed by flow cytometry. Flow cytometry was done with a FACS vantage SE (Becton Dickinson). A minimum of 10,000 cells per sample were counted and the DNA histograms were further analyzed by using FCS Express software for cell cycle analysis.

Row | SMILES | toxicity of ICG alone (cell survival) ([1]; ICG alone, up to 200 μM) | effect of combination with cisplatin on viability and drug resistance [2] | toxicity of TMPD alone (cell survival / viability) ([1]; TMPD alone, up to 100 μM) | cell viability ([2]; 100 μM TMPD alone) | cells with DNA fragmentation (BrdU-positive) ([3]; 100 μM TMPD alone) | DNA fragmentation (BrdU positive cells) ([4]; 100 μM TMPD alone) | DNA strand breaks in plasmid DNA [5] | killing of HeLa cells ([1]; 10 and 20 μM cisplatin alone) | cell survival rates ([1]; CDDP alone, 24 h) | resistance of HTB-161 cells to cisplatin ([2]; cisplatin alone, 200-300 uM) | distribution of cells in the cell cycle [6] | cells with DNA fragmentation (BrdU-positive) ([3]; 10 μM CDDP without or with 100 μM TMPD) | cells with DNA fragmentation (BrdU-positive) ([3]; 25 μM CDDP without or with 100 μM TMPD) | cells with DNA fragmentation (BrdU-positive) ([3]; 50 μM CDDP without or with 100 μM TMPD) | cell cycle arrest ([3]; HeLa cells, CDDP as single agent (lower doses) or with TMPD) | DNA fragmentation (BrdU positive cells) ([4]; 50 μM cisplatin without or with 100 μM TMPD)
1 | CC1(C)C(/C=C/C=C/C=C/C=C2\N(CCCCS(=O)(=O)[O-])c3ccc4ccccc4c3C2(C)C)=[N+](CCCCS(=O)(=O)[O-])c2ccc3ccccc3c21.[Na+] [ICG, Indocyanine green] | no significant toxicity | rendered cisplatin-resistant tumor cells almost completely sensitive |  |  |  |  |  |  |  |  |  |  |  |  |  | 
2 | CN(C)c1ccc(N(C)C)cc1 [TMPD, N,N, N′,N′-tetramethyl-p-phenylene diamine] |  | rendered cisplatin-resistant tumor cells almost completely sensitive | very mild toxicity; also recorded: only slightly decreased the cell viability; also recorded: no significant toxicity | slight decrease of the cell viability | 2% | 0.04% |  |  |  |  |  |  |  |  |  | 
3 | N.N.[Cl][Pt][Cl] [cisplatin, cis-diamminedichloroplatinum(II)] |  |  |  |  |  |  | no SSBs and DSBs but intrastrand cross links only; also recorded: intrastrand cross links only, with no SSBs or DSBs | 20% | decreased the cell survival rates in a dose-dependent manner | strong resistance | accumulation of cells in the G1 phase | 9% | 6% | 38% | accumulate in the G2/M phase | 3.61%
